# Assay results: PMC3026800, “Mechanism of Inhibition of Enveloped Virus Membrane Fusion by the Antiviral Drug Arbidol” (PLoS ONE, 2011)
# Tested on: HApp (pseudoparticles harbouring the influenza hemagglutinin)
# Type: cell-based
# Settings: 11.3 µM arbidol
smiles,measurement,value
"CCOC(=O)c1c(CSc2ccccc2)n(C)c2cc(Br)c(O)c(CN(C)C)c12.Cl [Arb, 1H-indole-3-carboxylic acid, 6-bromo-4-[(dimethylamino)-methyl]-5-hydroxy-1-methyl-2-[(phenylthio)methyl]-, ethyl ester, monohydrochloride]",Sensitivity of pseudoparticle entry to arbidol,sensitive
